#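 96-well plates; 48 h exposure; 5 concentrations. Endpoints by linear interpolation between flanking doses. Not reached: highest tested concentration assigned. Here, GI50 denotes the concentration required for 50% inhibition of growth.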 The source made the active and inactive calls. Rule as the data show it: active = GI50 up to about 1.1 µM and inactive = higher.
# Columns and labels:
# Test in all cases: DTP human tumour cell line panel, 48 h
# [1] = system: 786-0
# [2] = system: A498
# [3] = system: A549
# [4] = system: ACHN
# [5] = system: BT-549
# [6] = system: CAKI-1
# [7] = system: CCRF-CEM
# [8] = system: COLO 205
# [9] = system: DU-145
# [10] = system: EKVX
# [11] = system: HCC 2998
# [12] = system: HCT-116
# [13] = system: HCT-15
# [14] = system: HL-60
# [15] = system: HOP-62
# [16] = system: HOP-92
# [17] = system: HT-29
# [18] = system: Hs-578T
# [19] = system: IGROV-1
# [20] = system: K562
# [21] = system: KM12
# [22] = system: LOX IMVI
# [23] = system: M14
# [24] = system: MCF7
# [25] = system: MDA-MB-231
# [26] = system: MDA-MB-435
# [27] = system: MDA-N
# [28] = system: MOLT-4
# [29] = system: Malme-3M
# [30] = system: NCI-H226
# [31] = system: NCI-H23
# [32] = system: NCI-H460
# [33] = system: NCI-H522
# [34] = system: NCI/ADR-RES
# [35] = system: OVCAR-3
# [36] = system: OVCAR-4
# [37] = system: OVCAR-5
# [38] = system: OVCAR-8
# [39] = system: PC-3
# [40] = system: RPMI-8226
# [41] = system: RXF 393
# [42] = system: SF-268
# [43] = system: SF-295
# [44] = system: SF-539
# [45] = system: SK-MEL-28
# [46] = system: SK-MEL-2
# [47] = system: SK-MEL-5
# [48] = system: SK-OV-3
# [49] = system: SN12C
# [50] = system: SNB-19
# [51] = system: SNB-75
# [52] = system: SR
# [53] = system: SW-620
# [54] = system: T47D
# [55] = system: TK-10
# [56] = system: U-251
# [57] = system: UACC-257
# [58] = system: UACC-62
# [59] = system: UO-31
smiles,measurement,setting,value
c1ccc(/C(=N\Nc2nc3ccccc3s2)c2ccccn2)cc1,GI50,[1],2.36 µM (inactive)
same,GI50,[2],6.15 µM (inactive)
same,GI50,[3],3.09 µM (inactive)
same,GI50,[4],0.815 µM (active)
same,GI50,[5],18.8 µM (inactive)
same,GI50,[6],2.72 µM (inactive)
same,GI50,[7],0.0603 µM (active)
same,GI50,[8],1.37 µM (inactive)
same,GI50,[9],3.75 µM (inactive)
same,GI50,[10],0.41 µM (active)
same,GI50,[11],14.4 µM (inactive)
same,GI50,[12],1.88 µM (inactive)
same,GI50,[13],0.622 µM
same,GI50,[14],0.792 µM (active)
same,GI50,[15],6.47 µM (inactive)
same,GI50,[16],7.31 µM (inactive)
same,GI50,[17],1.87 µM (inactive)
same,GI50,[18],13.2 µM (inactive)
same,GI50,[19],4.69 µM (inactive)
same,GI50,[20],1.72 µM (inactive)
same,GI50,[21],3.56 µM (inactive)
same,GI50,[22],4.04 µM (inactive)
same,GI50,[23],3.14 µM (inactive)
same,GI50,[24],0.317 µM (active)
same,GI50,[25],4.74 µM (inactive)
same,GI50,[26],5.68 µM (inactive)
same,GI50,[27],4.94 µM (inactive)
same,GI50,[28],0.346 µM (active)
same,GI50,[29],0.649 µM (active)
same,GI50,[30],3.87 µM (inactive)
same,GI50,[31],6.82 µM (inactive)
same,GI50,[32],1.97 µM (inactive)
same,GI50,[33],2.71 µM (inactive)
same,GI50,[34],2.7 µM (inactive)
same,GI50,[35],0.0948 µM (active)
same,GI50,[36],2.66 µM (inactive)
same,GI50,[37],3.91 µM (inactive)
same,GI50,[38],2.52 µM (inactive)
same,GI50,[39],5.7 µM (inactive)
same,GI50,[40],1.77 µM (inactive)
same,GI50,[41],4.3 µM (inactive)
same,GI50,[42],3.13 µM (inactive)
same,GI50,[43],5.19 µM (inactive)
same,GI50,[44],7 µM (inactive)
same,GI50,[45],8.13 µM (inactive)
same,GI50,[46],4.08 µM (inactive)
same,GI50,[47],2.49 µM (inactive)
same,GI50,[48],8.28 µM (inactive)
same,GI50,[49],2.79 µM (inactive)
same,GI50,[50],5.77 µM (inactive)
same,GI50,[51],19.7 µM (inactive)
same,GI50,[52],0.891 µM (active)
same,GI50,[53],3.18 µM (inactive)
same,GI50,[54],< 0.0248 µM (active)
same,GI50,[55],1.38 µM (inactive)
same,GI50,[56],2.84 µM (inactive)
same,GI50,[57],2.92 µM (inactive)
same,GI50,[58],3.66 µM (inactive)
same,GI50,[59],0.0843 µM (active)
Nc1nc(SCC(=O)c2ccccc2)nc2nc3c(c(-c4ccccc4)c12)CCCC3,GI50,[1],20.6 µM (inactive)
same,GI50,[2],19.8 µM (inactive)
same,GI50,[3],45.1 µM (inactive)
same,GI50,[4],56.6 µM (inactive)
same,GI50,[5],40.9 µM (inactive)
same,GI50,[6],15.3 µM (inactive)
same,GI50,[7],74.8 µM (inactive)
same,GI50,[8],> 10 µM (inactive)
same,GI50,[9],> 100 µM (inactive)
same,GI50,[10],63.4 µM (inactive)
same,GI50,[11],33 µM (inactive)
same,GI50,[12],30.5 µM (inactive)
same,GI50,[13],> 100 µM
same,GI50,[14],> 100 µM (inactive)
same,GI50,[15],41.9 µM (inactive)
same,GI50,[16],> 10 µM (inactive)
same,GI50,[17],27.1 µM (inactive)
same,GI50,[18],19.1 µM (inactive)
same,GI50,[19],> 10 µM (inactive)
same,GI50,[20],> 100 µM (inactive)
same,GI50,[21],22.4 µM (inactive)
same,GI50,[22],24.8 µM (inactive)
same,GI50,[23],19.2 µM (inactive)
same,GI50,[24],47.8 µM (inactive)
same,GI50,[25],19.1 µM (inactive)
same,GI50,[26],32.6 µM (inactive)
same,GI50,[27],31.9 µM (inactive)
same,GI50,[28],> 100 µM (inactive)
same,GI50,[29],52.4 µM (inactive)
same,GI50,[30],18.1 µM (inactive)
same,GI50,[31],76.2 µM (inactive)
same,GI50,[32],32.9 µM (inactive)
same,GI50,[33],31.2 µM (inactive)
same,GI50,[34],25.6 µM (inactive)
same,GI50,[35],22.5 µM (inactive)
same,GI50,[36],23.4 µM (inactive)
same,GI50,[37],52 µM (inactive)
same,GI50,[38],27.2 µM (inactive)
same,GI50,[39],> 10 µM (inactive)
same,GI50,[40],> 100 µM (inactive)
same,GI50,[41],17.7 µM (inactive)
same,GI50,[42],18.4 µM (inactive)
same,GI50,[43],> 10 µM (inactive)
same,GI50,[44],> 100 µM (inactive)
same,GI50,[45],21.9 µM (inactive)
same,GI50,[46],27.9 µM (inactive)
same,GI50,[47],49.1 µM (inactive)
same,GI50,[48],4.71 µM (inactive)
same,GI50,[49],38.5 µM (inactive)
same,GI50,[50],49.9 µM (inactive)
same,GI50,[51],26.4 µM (inactive)
same,GI50,[52],> 100 µM (inactive)
same,GI50,[53],> 10 µM (inactive)
same,GI50,[54],40.3 µM (inactive)
same,GI50,[55],> 100 µM (inactive)
same,GI50,[56],32 µM (inactive)
same,GI50,[57],35 µM (inactive)
same,GI50,[58],23.3 µM (inactive)
same,GI50,[59],12.4 µM (inactive)
